Counter-ions that a name gives are not always drawn. Values belong to the compound of their own block, whether it stands above or below them.
Experiments:
[1] = target: T1, mouse full-length Src protein (Mus musculus, UniProt P05480); assay: IC50 determination for inhibitors of Src kinase (IMAP fluorescence polarization); type: biochemical; conditions: 24 uM ATP, 37° C., 60 minutes; read-out: IC50 Src kinase inhibition
T1 construct: mouse full-length Src protein
Description: Src assay was done using mouse full-length Src protein, fluorescein labeled peptide substrate (with a sequence of KVEKIGEGTYGVVYK) and quantified by Molecular Devices' IMAP fluorescence polarization technology. Compounds were tested in serially diluted concentrations in 384 well plates. Kinase reaction was performed in KAB Buffer (10 mM HEPES, pH 7, 50 mM NaCl, 5 mM MgCl2, 1 mM DTT, 0.1 mM NaVO4, 0.02% BSA), in the presence of 24 uM ATP, incubated at 37° C. for 60 minutes. Reaction was stopped by IMAP bead mix (at 1:400 dilution). After incubation at room temperature for 2 hours, the reaction product was analyzed on LJL Acquest (excitation 485 nm and Emission 530 nm).
(§1) FP reading (in mP) was used to calculate reaction rate. The assay was semi-automated by Tomtec Quadra workstation.

[2] = target: human recombinant PDGFR beta (Homo sapiens, UniProt P09619); assay: IC50 determination for inhibitors of PDGFR kinase (IMAP fluorescence polarization); type: biochemical; conditions: 48 uM ATP, room temperature, 60 minutes, read-out: IC50 PDGFR kinase inhibition
human recombinant PDGFR beta, sequence (P09619 33-1106): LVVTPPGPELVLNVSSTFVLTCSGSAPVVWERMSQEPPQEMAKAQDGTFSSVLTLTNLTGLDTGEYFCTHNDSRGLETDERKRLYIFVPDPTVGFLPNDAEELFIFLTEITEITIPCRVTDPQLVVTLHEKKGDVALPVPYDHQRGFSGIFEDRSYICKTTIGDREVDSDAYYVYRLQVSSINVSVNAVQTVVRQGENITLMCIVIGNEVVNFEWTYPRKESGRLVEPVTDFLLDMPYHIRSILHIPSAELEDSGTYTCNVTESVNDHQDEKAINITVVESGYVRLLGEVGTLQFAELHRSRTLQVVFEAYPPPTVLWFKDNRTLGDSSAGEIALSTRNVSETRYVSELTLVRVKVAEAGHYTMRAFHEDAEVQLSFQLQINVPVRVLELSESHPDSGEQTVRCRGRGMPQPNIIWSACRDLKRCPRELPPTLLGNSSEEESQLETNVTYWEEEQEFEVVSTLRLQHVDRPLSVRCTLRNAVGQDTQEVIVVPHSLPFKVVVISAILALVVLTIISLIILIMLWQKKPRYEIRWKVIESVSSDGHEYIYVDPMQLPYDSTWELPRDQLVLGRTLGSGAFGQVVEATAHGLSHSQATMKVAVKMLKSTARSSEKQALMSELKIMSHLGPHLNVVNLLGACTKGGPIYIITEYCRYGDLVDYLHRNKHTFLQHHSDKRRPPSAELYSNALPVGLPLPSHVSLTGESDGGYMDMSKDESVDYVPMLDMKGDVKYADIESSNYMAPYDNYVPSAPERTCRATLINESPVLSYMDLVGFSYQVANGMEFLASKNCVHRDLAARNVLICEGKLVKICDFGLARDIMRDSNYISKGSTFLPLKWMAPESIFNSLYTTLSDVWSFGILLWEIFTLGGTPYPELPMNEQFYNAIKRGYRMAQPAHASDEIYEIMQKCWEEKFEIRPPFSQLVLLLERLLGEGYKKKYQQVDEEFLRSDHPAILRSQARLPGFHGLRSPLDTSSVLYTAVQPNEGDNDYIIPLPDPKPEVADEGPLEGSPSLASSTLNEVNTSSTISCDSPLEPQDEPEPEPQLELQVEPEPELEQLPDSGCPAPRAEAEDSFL
Description: PDGFR assay was carried out with human recombinant PDGFR beta, fluorescein labeled peptide substrate (with a peptide sequence of ALTSNQEYLDLSMPL) and test compounds (in serial dilution) using 384-well plates. Kinase reaction was performed in MOPS buffer (20 mM MOPS pH 7.1, 5 mM Sodium Acetate, 6.25 mM MgCl2, 0.5 mM EDTA, 1 mM DTT, 0.04 mM NaVO4, 0.02% BSA), in the presence of 48 uM ATP, incubated at room temperature for 60 minutes. Reaction was stopped by IMAP Bead Binding System (Molecular Devices). After incubation at room temperature for 2 hours, the reaction product was analyzed on LJL Acquest.
as §1

[3] = target: T2, fusion protein corresponding to mouse Abl (27-end) (Mus musculus, UniProt P00520); assay: IC50 determination for inhibitors of Abl kinase (IMAP fluorescence polarization); type: biochemical; conditions: 22.8 uM ATP, 37° C., 60 minutes; read-out: IC50 Abl kinase inhibition
T2 construct: fusion protein corresponding to mouse Abl (27-end)
T2 sequence (P00520 27-1123 limits assumed): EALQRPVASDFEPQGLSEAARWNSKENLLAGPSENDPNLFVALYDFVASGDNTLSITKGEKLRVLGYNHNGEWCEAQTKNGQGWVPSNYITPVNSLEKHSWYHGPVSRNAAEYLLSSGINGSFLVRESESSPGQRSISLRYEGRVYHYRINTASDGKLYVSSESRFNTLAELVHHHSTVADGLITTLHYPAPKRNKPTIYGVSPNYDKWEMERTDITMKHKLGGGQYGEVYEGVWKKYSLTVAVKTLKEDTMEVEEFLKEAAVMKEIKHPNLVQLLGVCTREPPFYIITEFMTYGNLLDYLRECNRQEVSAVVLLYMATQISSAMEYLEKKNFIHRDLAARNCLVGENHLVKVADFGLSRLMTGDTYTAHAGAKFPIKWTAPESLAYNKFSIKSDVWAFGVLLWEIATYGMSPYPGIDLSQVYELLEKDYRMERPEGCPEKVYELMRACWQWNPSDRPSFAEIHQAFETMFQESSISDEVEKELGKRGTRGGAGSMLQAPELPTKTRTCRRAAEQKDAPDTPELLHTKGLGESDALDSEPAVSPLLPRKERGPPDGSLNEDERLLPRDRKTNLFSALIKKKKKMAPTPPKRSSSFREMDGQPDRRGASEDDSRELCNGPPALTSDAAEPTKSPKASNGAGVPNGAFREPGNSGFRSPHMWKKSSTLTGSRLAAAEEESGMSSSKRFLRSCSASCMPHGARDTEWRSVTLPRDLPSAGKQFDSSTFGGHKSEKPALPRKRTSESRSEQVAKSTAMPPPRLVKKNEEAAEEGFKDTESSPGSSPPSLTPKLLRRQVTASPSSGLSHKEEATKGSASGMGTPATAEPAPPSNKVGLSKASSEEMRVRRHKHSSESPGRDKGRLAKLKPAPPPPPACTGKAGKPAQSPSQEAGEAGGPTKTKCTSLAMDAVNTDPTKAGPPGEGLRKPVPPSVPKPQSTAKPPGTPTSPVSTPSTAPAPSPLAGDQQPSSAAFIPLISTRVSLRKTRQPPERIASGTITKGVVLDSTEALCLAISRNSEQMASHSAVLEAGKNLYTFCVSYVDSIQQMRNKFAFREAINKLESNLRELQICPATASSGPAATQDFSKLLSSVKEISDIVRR
Description: Abl assay was done using fusion protein corresponding to mouse Abl (27-end), fluorescein labeled peptide substrate (with a sequence of EAIYAAPFAKKK) and quantified by Molecular Devices' IMAP fluorescence polarization technology. Compounds were tested in serially diluted concentrations in 384 well plates. Kinase reaction was performed in KAB Buffer (10 mM HEPES, pH 7, 50 mM NaCl, 5 mM MgCl2, 1 mM DTT, 0.1 mM NaVO4, 0.02% BSA), in the presence of 22.8 uM ATP, incubated at 37° C. for 60 minutes. Reaction was stopped by IMAP bead mix (at 1:400 diluted). After incubation at room temperature for 3 hours, the reaction product was analyzed on LJL Acquest (excitation 485 nm and Emission 530 nm).
FP reading (in mP) was used to calculate reaction rate. The assay was semi automated by Tomtec Quadra workstation.

HCT 116 cells = assay: CellTiter-Glo assay in HCT 116 cells (antiproliferative activity); type: cell-based; conditions: Homo sapiens, HCT-116, 120 h, cell viability after 5 days
Description: The CellTiter-Glo™ Luminescent Cell Viability Assay (Promega) is a homogeneous method of determining the number of viable cells in culture based on quantitation of the ATP present, which signals the presence of metabolically active cells.
HCT 116 cells (human colon carcinoma, ATCC-No. CCl-247) were cultivated in RPMI 1640 medium with GlutaMAX™ 1 (Invitrogen, Cat-No. 61870-010), 5% Fetal Calf Serum (FCS, Sigma Cat-No. F4135 (FBS)); 100 Units/ml penicillin/100 μg/ml streptomycin (=Pen/Strep from Invitrogen Cat. No. 15140). For the assay the cells were seeded in 384 well plates, 1000 cells per well, in the same medium. The next day the test compounds were added in various concentrations ranging from 30 μM to 0.0015 μM (10 concentrations, 1:3 diluted). After 5 days the CellTiter-Glo™ assay was done according to the instructions of the manufacturer (CellTiter-Glo™ Luminescent Cell Viability Assay, from Promega). In brief: the cell-plate was equilibrated to room temperature for approximately 30 minutes and than the CellTiter-Glo™ reagent was added. The contents were carefully mixed for 15 minutes to induce cell lysis. After 45 minutes the luminescent signal was measured in Victor 2, (scanning multiwell spectrophotometer, Wallac).
• Medium: RPMI 1640 with GlutaMAX™ 1 (Invitrogen, Cat-No. 61870), 5% FCS (Sigma Cat.-No. F4135), Pen/Strep (Invitrogen, Cat No. 15140). • HCT116 (ATCC-No. CCl-247): 1000 cells in 60 μl per well of 384 well plate (Greiner 781098, μClear-plate white) • After seeding incubate plates 24 h at 37° C., 5% CO2 2nd. Day: Induction (Treatment with Compounds, 10 Concentrations):
In order to achieve a final concentration of 30 μM as highest concentration 3.5 μl of 10 mM compound stock solution were added directly to 163 μl media. Then step e) of the dilution procedure described below, was followed.

T1 sequence (P05480 whole entry): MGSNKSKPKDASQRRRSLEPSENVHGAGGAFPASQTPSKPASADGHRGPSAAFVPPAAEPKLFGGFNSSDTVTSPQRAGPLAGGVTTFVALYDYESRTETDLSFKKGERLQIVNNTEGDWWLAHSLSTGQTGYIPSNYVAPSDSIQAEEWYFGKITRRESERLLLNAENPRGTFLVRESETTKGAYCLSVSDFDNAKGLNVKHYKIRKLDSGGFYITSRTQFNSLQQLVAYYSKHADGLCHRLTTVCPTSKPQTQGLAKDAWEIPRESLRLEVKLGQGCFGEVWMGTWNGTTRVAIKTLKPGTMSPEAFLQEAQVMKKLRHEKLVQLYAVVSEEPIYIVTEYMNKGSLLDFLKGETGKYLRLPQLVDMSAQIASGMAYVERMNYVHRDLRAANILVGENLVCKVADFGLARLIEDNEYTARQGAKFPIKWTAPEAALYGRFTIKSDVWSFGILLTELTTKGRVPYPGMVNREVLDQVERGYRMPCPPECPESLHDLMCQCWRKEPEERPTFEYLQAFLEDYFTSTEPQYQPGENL

- IC50 [1]: 5 to 1000 nM
- IC50 [2]: 10 to 1000 nM
- IC50 [3]: 831 nM
SMILES: O=C(Nc1ccc(N2CCOCC2)cc1)c1ccc(Cl)c(C(=O)Nc2cnc3[nH]ccc3c2)c1 [Example 7-1, 4-Chloro-N^1-(4-morpholin-4-yl-phenyl)-N^3-(1H-pyrrolo[2,3-b]pyridin-5-yl)-isophthalamide]

- IC50 [1]: 10 nM
- IC50 [3]: 5 to 1000 nM
SMILES: Cc1ccc(NC(=O)c2ccccc2)cc1C(=O)Nc1cnc2[nH]cnc2c1 [Example 6-1, 5-benzoylamino-N-(3H-imidazo[4,5-b]pyridin-6-yl)-2-methyl-benzamide]

- IC50 (HCT 116 cells): 100 to 10000 nM
SMILES: O=C(N[C@H]1C[C@@H]1c1ccccc1)c1ccc(Cl)c(C(=O)Nc2cnc3[nH]ccc3c2)c1 [Example 8-3, 4-Chloro-N^1-((1S,2R)-2-phenyl-cyclopropyl)-N^3-(1H-pyrrolo[2,3-b]pyridin-5-yl)-isophthalamide hydrochloride]

- IC50 (HCT 116 cells): 100 to 10000 nM
SMILES: CC(C)(C#N)c1cccc(NC(=O)c2ccc(Cl)c(C(=O)Nc3cnc4[nH]ccc4c3)c2)c1 [Example 8-7, 4-Chloro-N^1-[3-(cyano-dimethyl-methyl)-phenyl]-N^3-(1H-pyrrolo[2,3-b]pyridin-5-yl)-isophthalamide hydrochloride]

- IC50 (HCT 116 cells): 100 to 10000 nM
SMILES: O=C(Nc1ccc(Oc2ccccc2)nc1)c1ccc(Cl)c(C(=O)Nc2cnc3[nH]ccc3c2)c1 [Example 8-1, 4-Chloro-N^1-(6-phenoxy-pyridin-3-yl)-N^3-(1H-pyrrolo[2,3-b]pyridin-5-yl)-isophthalamide hydrochloride]

- IC50 [1]: 5 to 1000 nM
SMILES: Cc1ccc(NC(=O)c2ccc(-c3ccccc3)cc2)cc1C(=O)Nc1cnc2[nH]cnc2c1 [Example 6-3, Biphenyl-4-carboxylic acid [3-(3H-imidazo[4,5-b]pyridin-6-ylcarbamoyl)-4-methyl-phenyl]-amide]

- IC50 [1]: 5 to 1000 nM
- IC50 [2]: 1120 nM
SMILES: Cc1ccc(NC(=O)c2cccc(-c3ccccc3)c2)cc1C(=O)Nc1cnc2[nH]cnc2c1 [Example 6-2, Biphenyl-3-carboxylic acid [3-(3H-imidazo[4,5-b]pyridin-6-ylcarbamoyl)-4-methyl-phenyl]-amide]

- IC50 (HCT 116 cells): 100 to 10000 nM
SMILES: CN1C(=O)CSc2cc(NC(=O)c3ccc(Cl)c(C(=O)Nc4cnc5[nH]ccc5c4)c3)ccc21 [Example 8-8, 4-Chloro-N^1-(4-methyl-3-oxo-3,4-dihydro-2H-benzo[1,4]thiazin-7-yl)-N^3-(1H-pyrrolo[2,3-b]pyridin-5-yl)-isophthalamide hydrochloride]

- IC50 (HCT 116 cells): 100 to 10000 nM
SMILES: O=C(Nc1cccc(-n2cccn2)c1)c1ccc(Cl)c(C(=O)Nc2cnc3[nH]ccc3c2)c1 [Example 8-5, 4-Chloro-N^1-(3-pyrazol-1-yl-phenyl)-N^3-(1H-pyrrolo[2,3-b]pyridin-5-yl)-isophthalamide hydrochloride]

- IC50 (HCT 116 cells): 100 to 10000 nM
SMILES: O=C(Nc1nc2c(c(C(F)(F)F)n1)CCCC2)c1ccc(Cl)c(C(=O)Nc2cnc3[nH]ccc3c2)c1 [Example 8-2, 4-Chloro-N^3-(1H-pyrrolo[2,3-b]pyridin-5-yl)-N^1-(4-trifluoromethyl-5,6,7,8-tetrahydro-quinazolin-2-yl)-isophthalamide hydrochloride]

Continued, compound first:

SMILES: O=C(Nc1ccc(Cl)c(C(=O)Nc2cnc3[nH]ccc3c2)c1)c1cccc(N2CCOCC2)c1 [Example 4-3, 2-Chloro-5-(3-morpholin-4-yl-benzoylamino)-N-(1H-pyrrolo[2,3-b]pyridin-5-yl)-benzamide]
- IC50 [1]: 5 to 1000 nM
- IC50 (HCT 116 cells): 100 to 10000 nM
- IC50 [3]: 5 to 1000 nM

SMILES: O=C(Nc1ccc(Cl)c(C(=O)Nc2cnc3[nH]ccc3c2)c1)c1cccc(-c2ccccc2)c1 [Example 2-1, Biphenyl-3-carboxylic acid[4-chloro-3-(1H-pyrrolo[2,3-b]pyridin-5-ylcarbamoyl)-phenyl]-amide]
- IC50 [1]: 5 to 1000 nM
- IC50 (HCT 116 cells): 100 to 10000 nM
- IC50 [2]: 14 nM
- IC50 [3]: 5 to 1000 nM

SMILES: CC(C)(C#N)c1cccc(C(=O)Nc2ccc(Cl)c(C(=O)Nc3cnc4[nH]ccc4c3)c2)c1 [Example 4-6, 2-Chloro-5-[3-(cyano-dimethyl-methyl)-benzoylamino]-N-(1H-pyrrolo[2,3-b]pyridin-5-yl)-benzamide]
- IC50 (HCT 116 cells): 100 to 10000 nM
- IC50 [3]: 5 to 1000 nM

SMILES: O=C(Nc1ccc(Cl)c(C(=O)Nc2cnc3[nH]ccc3c2)c1)c1cc(-c2ccccc2Cl)no1 [Example 4-1, 3-(2-Chloro-phenyl)-isoxazole-5-carboxylic acid[4-chloro-3-(1H-pyrrolo[2,3-b]pyridin-5-ylcarbamoyl)-phenyl]-amide]
- IC50 (HCT 116 cells): 100 to 10000 nM
- IC50 [3]: 5 to 1000 nM

SMILES: CC(Sc1cccc(-c2ccc(C(=O)Nc3ccc(Cl)c(C(=O)Nc4cnc5[nH]ccc5c4)c3)cc2)c1)C(N)=O (centres unmarked) [Example 1-2, 3′-(1-Carbamoyl-ethylsulfanyl)-biphenyl 4 carboxylic acid [4-chloro 3 (1H-pyrrolo[2,3-b]pyridin-5-ylcarbamoyl)-phenyl]-amide]
- IC50 (HCT 116 cells): 100 to 10000 nM

SMILES: O=C(Nc1ccc(Cl)c(C(=O)Nc2cnc3[nH]ccc3c2)c1)c1ccc(N2CCOCC2)cc1 [Example 2-3, 2-Chloro-5-(4-morpholin-4-yl-benzoylamino)-N-(1H-pyrrolo[2,3-b]pyridin-5-yl)-benzamide]
- IC50 [1]: 189 nM
- IC50 (HCT 116 cells): 100 to 10000 nM
- IC50 [2]: 10 to 1000 nM
- IC50 [3]: 5 to 1000 nM

SMILES: Cc1c(C(=O)Nc2ccc(Cl)c(C(=O)Nc3cnc4[nH]ccc4c3)c2)cnn1-c1ccccc1 [Example 4-2, 5-Methyl-1-phenyl-1H-pyrazole-4-carboxylic acid [4-chloro-3-(1H-pyrrolo[2,3-b]pyridin-5-ylcarbamoyl)-phenyl]-amide]
- IC50 [1]: 5 to 1000 nM
- IC50 [3]: 5 to 1000 nM

SMILES: CC(C)(C)Oc1ccc(C(=O)Nc2ccc(Cl)c(C(=O)Nc3cnc4[nH]ccc4c3)c2)cc1 [Example 4-5, 5-(4-tert-Butoxy-benzoylamino)-2-chloro-N-(1H-pyrrolo[2,3-b]pyridin-5-yl)-benzamide]
- IC50 [1]: 5 to 1000 nM
- IC50 (HCT 116 cells): 380 nM
- IC50 [3]: 5 to 1000 nM

SMILES: Cc1n[nH]c(C)c1-c1ccccc1C(=O)Nc1ccc(Cl)c(C(=O)Nc2cnc3[nH]ccc3c2)c1 [Example 3-1]
- IC50 [1]: 5 to 1000 nM

SMILES: COc1ccc([C@H]2C[C@@H]2C(=O)Nc2ccc(Cl)c(C(=O)Nc3cnc4[nH]ccc4c3)c2)cc1 [Example 4-7, 2-Chloro-5-{[(1S,2S)-2-(4-methoxy-phenyl)-cyclopropanecarbonyl]-amino}-N-(1H-pyrrolo[2,3-b]pyridin-5-yl)-benzamide]
- IC50 (HCT 116 cells): 100 to 10000 nM

SMILES: COc1ccccc1/C=C/C(=O)Nc1ccc(Cl)c(C(=O)Nc2cnc3[nH]ccc3c2)c1 [Example 4-4, 2-Chloro-5-[(E)-3-(2-methoxy-phenyl)-acryloylamino]-N-(1H-pyrrolo[2,3-b]pyridin-5-yl)-benzamide]
- IC50 (HCT 116 cells): 100 to 10000 nM

— patent US8067599B2 (Hoffman-La Roche Inc., priority 2006, dated 2011)
